Measured values published in patent publication US3960837A, “Polyamine compounds and methods for their production” (Parke, Davis & Company, priority 1974, dated 1976).

How the values were obtained:
Assay type in all cases: cell-based
Enterobacter cloacae = experiment: in vitro antibacterial screening, minimal inhibitory concentration, Enterobacter cloacae; settings: Enterobacter cloacae (1 strain); Tryptic Soy broth; free base equivalent
Source text: (§1) Aminotrideoxybutirosin A and its acid-addition salts posses antibacterial activity. They show activity when tested by well-recognized in vitro antibacterial screening procedures. […] Where more than a single strain of test organism is indicated an average or approximate minimal inhibitory concentration is given.

Klebsiella pneumoniae = experiment: in vitro antibacterial screening, minimal inhibitory concentration, Klebsiella pneumoniae; settings: Klebsiella pneumoniae (1 strain); Tryptic Soy broth; free base equivalent
Source text: as §1

Pseudomonas aeruginosa = experiment: in vitro antibacterial screening, minimal inhibitory concentration, Pseudomonas aeruginosa; settings: Pseudomonas aeruginosa (6 strains), average or approximate; Tryptic Soy broth; free base equivalent
Source text: as §1

Serratia marcescens = experiment: in vitro antibacterial screening, minimal inhibitory concentration, Serratia marcescens; settings: Serratia marcescens (1 strain); Tryptic Soy broth; free base equivalent
Source text: as §1

Staphylococcus aureus = experiment: in vitro antibacterial screening, minimal inhibitory concentration, Staphylococcus aureus (butirosin resistant strain); settings: Staphylococcus aureus (1 strain), Tryptic Soy broth, free base equivalent
Source text: as §1
(§2) *Butirosin resistant strain

[1] = tested on: Pseudomonas aeruginosa Aquilar; experiment: in vitro antibacterial screening, minimal inhibitory concentration, Pseudomonas aeruginosa Aquilar (butirosin resistant strain); settings: Pseudomonas aeruginosa Aquilar (1 strain), Tryptic Soy broth, free base equivalent
Source text: as §1, §2

Escherichia coli = experiment: in vitro antibacterial screening, minimal inhibitory concentration, Escherichia coli; settings: Escherichia coli (1 strain); Tryptic Soy broth; free base equivalent
Source text: as §1

Compound | MIC (Enterobacter cloacae) [µg/mL] | MIC (Klebsiella pneumoniae) [µg/mL] | MIC (Pseudomonas aeruginosa) [µg/mL] | MIC (Serratia marcescens) [µg/mL] | MIC (Staphylococcus aureus) [µg/mL] | MIC [1] [µg/mL] | MIC (Escherichia coli) [µg/mL] | Minimal Inhibitory Concentration (Enterobacter cloacae) [micrograms/ml] | Minimal Inhibitory Concentration (Klebsiella pneumoniae) [micrograms/ml] | Minimal Inhibitory Concentration (Pseudomonas aeruginosa) [micrograms/ml] | Minimal Inhibitory Concentration (Serratia marcescens) [micrograms/ml] | Minimal Inhibitory Concentration (Staphylococcus aureus) [micrograms/ml] | Minimal Inhibitory Concentration [1] [micrograms/ml] | Minimal Inhibitory Concentration (Escherichia coli) [micrograms/ml]
NCC[C@H](O)C(=O)N[C@@H]1C[C@H](N)[C@@H](O[C@H]2O[C@H](CN)CC[C@H]2N)[C@H](O[C@@H]2O[C@H](CN)[C@H](O)[C@H]2O)[C@H]1O [Aminotrideoxybutirosin A, O-2,6-Diamino-2,3,4,6-tetradeoxy-α-D-erythro-hexopyranosyl-(1→4)-O-[5-amino-5-deoxy-β-D-xylofuranosyl-(1→5)]-N^1-[(S)-4-amino-2-hydroxy-1-oxobutyl]-2-deoxystreptamine] | 6.3 | 6.3 | 3.6 | 12.5 | 3.1 | 6.3 | 12.5 |  |  |  |  |  |  | 
Butirosin |  |  |  |  |  |  |  | 6.3 | 6.3 | 19.8 | 25 | 50 | > 200 | > 200
